Some test systems named below: A549 NSCLC; HT29 colon; NCI-H460 lung; RPMI-8226 leukemia; RXF 393 renal; SF-539 CNS; SK-MEL-5 melanoma; SNB-19 CNS; UACC-257 melanoma; K-562 leukemia.
Common to all, as to experiment: NCI-60 cell line screen, 48 h

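Five compound concentrations were applied to cells in 96-well plates for 48 hours; endpoints were derived by simple linear interpolation of the resulting dose-response curve. Abbreviation: GI50, concentration required for 50% inhibition of growth. Definition used: TGI = concentration required for complete inhibition of growth.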 A value given as a limit tells only on which side of the number the result lay.

As for `O=C(NC(=S)NS(=O)(=O)c1ccc(N2N=C3c4ccccc4CC3C2c2cccs2)cc1)c1ccccc1` (stereo not drawn), the GI50 in the test on A549 NSCLC is 20.3 µM; in the test on HT29 colon, 46 µM; with NCI-H460 lung, greater than 100 µM; with RPMI-8226 leukemia, 29.7 µM; in the test with RXF 393 renal it was 54 µM; in the test on SF-539 CNS, 27.9 µM. For the same molecule, the GI50 with SK-MEL-5 melanoma is 16.9 µM; with SNB-19 CNS, 46.3 µM; in the test on UACC-257 melanoma, 42.8 µM. For the same molecule, the TGI in the test with A549 NSCLC was greater than 100 µM; in the test on HT29 colon it was greater than 100 µM; with NCI-H460 lung, greater than 100 µM; in the test with RPMI-8226 leukemia, greater than 100 µM; in the test with RXF 393 renal, greater than 100 µM; in the test on SF-539 CNS, 84.6 µM. Also, the TGI was 46.5 µM with SK-MEL-5 melanoma, greater than 100 µM in the test with SNB-19 CNS and greater than 100 µM in the test with UACC-257 melanoma.
Regarding `CO/N=C1/c2cc(OC)ccc2-c2c(NOC)nc3ccccc3c21`, the GI50 in the test on A549 NSCLC was 16 µM; in the test on HT29 colon it was 42 µM; with K-562 leukemia, 65.7 µM; in the test with NCI-H460 lung, 29.5 µM; in the test on RPMI-8226 leukemia, 40.6 µM; with SF-539 CNS it was 21.9 µM. Besides, the figures for the GI50 with SK-MEL-5 melanoma, in the test on SNB-19 CNS and in the test with UACC-257 melanoma were 13.9 µM, 17.5 µM and 28.2 µM, respectively. Further, the TGI with A549 NSCLC was 37.3 µM; in the test on HT29 colon, greater than 100 µM; with K-562 leukemia, greater than 100 µM; in the test on NCI-H460 lung, greater than 100 µM; with RPMI-8226 leukemia, greater than 100 µM; in the test on SF-539 CNS, 52.6 µM. Further, the figures for the TGI with SK-MEL-5 melanoma, in the test on SNB-19 CNS and in the test on UACC-257 melanoma were 36 µM, 53 µM and greater than 100 µM, respectively.
For the molecule `O=C1c2cc3c(cc2-c2c1c1ccc([N+](=O)[O-])cc1c(=O)n2CCCCl)OCO3`, the GI50 is 0.523 µM with A549 NSCLC; 1.07 µM with HT29 colon; 0.0277 µM in the test on NCI-H460 lung; 0.275 µM in the test on RPMI-8226 leukemia; 0.145 µM in the test on SF-539 CNS; 0.246 µM in the test on SK-MEL-5 melanoma. For the same molecule, the GI50 in the test on SNB-19 CNS is 0.138 µM. The TGI in the test with A549 NSCLC was greater than 100 µM; in the test on HT29 colon it was greater than 100 µM; in the test on K-562 leukemia it was greater than 100 µM; with NCI-H460 lung, greater than 100 µM; with RPMI-8226 leukemia, greater than 26.6 µM; with SK-MEL-5 melanoma it was 2.59 µM. For the same molecule, the TGI in the test with SNB-19 CNS is greater than 100 µM.
Consider `CCC(=O)O[C@@H]1C2C(OC(C)=O)C34COC(C)([C@@H]3C3C(C[C@]3(C)OC(C)=O)[C@@H](OC(=O)c3ccccc3)C4=O)[C@H](OC(C)=O)[C@@]2(OC(C)=O)C[C@@H]1C` (stereo partly drawn), for which the TGI in the test on A549 NSCLC is greater than 100 µM; with HT29 colon, greater than 100 µM; in the test on NCI-H460 lung, greater than 100 µM; with RPMI-8226 leukemia, greater than 100 µM; in the test with SF-539 CNS, 47.5 µM; in the test with SK-MEL-5 melanoma, 51 µM. The results for the TGI in the test on SNB-19 CNS and in the test with UACC-257 melanoma were 45.8 µM and greater than 100 µM, respectively.
For `COc1ccccc1NC(=O)C1=C(C)NC(C)=C(C(=O)Nc2ccccc2OC)C1c1ccc(C(C)C)cc1`, the TGI with A549 NSCLC was greater than 100 µM; in the test with HT29 colon, greater than 100 µM; with K-562 leukemia, greater than 1 µM; in the test on NCI-H460 lung it was greater than 100 µM; in the test on RPMI-8226 leukemia, greater than 100 µM; with SF-539 CNS, greater than 100 µM. The TGI in the test on SK-MEL-5 melanoma, with SNB-19 CNS and with UACC-257 melanoma was greater than 100 µM each time.
On to `O=C(/C=C/c1ccccc1F)C(c1ccccc1)c1ccccc1`, for which the TGI in the test on A549 NSCLC is 17.4 µM; in the test with HT29 colon, 11.5 µM; with K-562 leukemia, 9.74 µM; in the test on RPMI-8226 leukemia, greater than 100 µM; in the test on SF-539 CNS, 5.48 µM; with SNB-19 CNS, 5.46 µM. Also, the TGI with UACC-257 melanoma was 17.7 µM.
With `N#Cc1c2ccccc2c2nnc3cc(Cl)c(Cl)cc3n12`, the GI50 with A549 NSCLC was 47.7 µM; in the test on HT29 colon it was greater than 100 µM; with K-562 leukemia, 29 µM; in the test on NCI-H460 lung it was 54.2 µM; with RPMI-8226 leukemia, 29.6 µM; in the test with RXF 393 renal, 30 µM. Besides, the values for the GI50 in the test on SF-539 CNS, in the test on SK-MEL-5 melanoma and in the test with UACC-257 melanoma were 28.5 µM, 84.2 µM and 34.5 µM, respectively. Further, the TGI is greater than 100 µM in the test on A549 NSCLC; greater than 100 µM with HT29 colon; 89.1 µM in the test on K-562 leukemia; greater than 100 µM with NCI-H460 lung; greater than 100 µM in the test with RPMI-8226 leukemia; greater than 100 µM in the test on RXF 393 renal. The TGI in the test with SF-539 CNS was 61.8 µM; in the test with SK-MEL-5 melanoma it was greater than 100 µM; in the test with UACC-257 melanoma, greater than 100 µM.
With `CNCCNc1nc2ccccc2c2c(=O)c3cccc(OC)c3sc12`, the GI50 in the test with A549 NSCLC is 1.2 µM; in the test on HT29 colon, 0.652 µM; in the test with K-562 leukemia, 0.596 µM; in the test on NCI-H460 lung it was 1.23 µM; in the test with RPMI-8226 leukemia, 1.43 µM; in the test with RXF 393 renal it was 1.38 µM. Also, the GI50 with SF-539 CNS was 1.69 µM; in the test on SK-MEL-5 melanoma it was 1.65 µM; in the test with UACC-257 melanoma, 1.78 µM. Moreover, the TGI in the test with A549 NSCLC turned out to be 2.78 µM; in the test with HT29 colon it was 2.28 µM; in the test with K-562 leukemia, 2.65 µM; with NCI-H460 lung, 2.72 µM; in the test with RPMI-8226 leukemia, 3.28 µM; with RXF 393 renal, 2.75 µM. The TGI is 3.12 µM in the test on SF-539 CNS, 3.04 µM in the test on SK-MEL-5 melanoma and 3.67 µM with UACC-257 melanoma.
As to `CCN1C(=O)N(c2c(F)c(OC)cc(OC)c2F)Cc2cnc3[nH]c(CN4CCOCC4)cc3c21`, the GI50 is 2.83 µM in the test with A549 NSCLC; 2.84 µM with HT29 colon; 8.66 µM in the test on K-562 leukemia; 1.86 µM in the test with NCI-H460 lung; 3.79 µM in the test with RPMI-8226 leukemia; 0.394 µM in the test with RXF 393 renal. In addition, the GI50 with SF-539 CNS is 1.01 µM; with SK-MEL-5 melanoma, 16.9 µM; with UACC-257 melanoma it was 4.69 µM. The TGI is greater than 100 µM in the test with A549 NSCLC; greater than 100 µM with HT29 colon; greater than 100 µM with K-562 leukemia; greater than 100 µM in the test with NCI-H460 lung; greater than 100 µM in the test on RPMI-8226 leukemia; 8.08 µM with RXF 393 renal. For the same molecule, the TGI is 13.7 µM in the test with SF-539 CNS, greater than 100 µM in the test on SK-MEL-5 melanoma and greater than 100 µM with UACC-257 melanoma.

(Values after PubChem BioAssay (NCI).)
